According to patent US12162892B2, “CD16a binding agents and uses thereof” (KLEO PHARMACEUTICALS, INC., priority 2018, dated 2024):
Values joined by “and” are separate entries in the source; they are usually repeats but may differ in a detail not shown here. Identical values can stand only once.

What was measured:
[1] = Biotin ELISA, No Protein (Example 55); type: binding; conditions: three replicate values per compound
Procedure: (§1) Coat ELISA plates (Costar 3922) using Neutravidin (Thermo 31000) at 5 μg/ml (100 μl/well) for 1 hour at 37° C. Plates were washed 4 times with PBST (PBS, 0.05% Tween 20-200 μl, 1 minute/wash) then blocked using 200 μl 5% bovine serum albumin (BSA, Heat Shock, Fraction V-American Bio AB01088-00100) in PBST for 2 hours at 25° C. with moderate shaking. BSA was removed and plates were washed. Biotinylated ligands diluted in PBSTB (PBST+0.1% BSA) were then added (100 μl/well) and incubated for 1 hour at 25° C. with gentle shaking. Ligands were removed and plates were washed. Any remaining unoccupied neutravidin binding sites were blocked by adding 100 μM Biotin (Fisher BP232-1) (100 μl/well) and incubated for 1 hour at 25° C. with gentle shaking. Plates were then washed. […] Protein was removed and plates were washed. Streptavidin-HRP (Invitrogen 434323) diluted 1:5000 in PBSTB was added (100 μl/well) and incubated for 1 hour at 25° C. with gentle shaking. Wash plates. Substrate (Super Signal ELISA Pico Chemiluminescent Substrate-Thermo 37069) was added (100 μl/well) and plates were incubated for 5 minutes at 25° C. with gentle shaking. Luminescence was then measured on the Biotek Synergy H1 microplate reader.
(§2) Using similar methods as Examples 47 or 53, interactions with a number of receptors were measured. In some embodiments, “stock” is antibody only, and “control” is an antibody that went through the same procedure except using DMSO only as opposed to a compound. When contacted with targeting moieties such as antibodies in the Examples, compounds, e.g., I-95, I-96, etc. can react through their reactive groups

CD16a158V [2] = target: T1, CD16a158V (Homo sapiens, UniProt P08637, F176V); experiment: Biotin ELISA, interaction with various receptors (Example 55); type: binding; conditions: three replicate values per compound
Procedure: as §1, §2

CD3ed = CD3ed (Homo sapiens, UniProt P04234+P07766); experiment: as above; type: binding; conditions: three replicate values per compound
Procedure: as §1, §2

CD64 = CD64 (Homo sapiens, UniProt P12314); experiment: as above; type: binding; conditions: three replicate values per compound
Procedure: as §1, §2

CD32b = target: T2, CD32b (Homo sapiens, UniProt P31994); experiment: as above; type: binding; conditions: three replicate values per compound
T2 sequence (P31994 43-310): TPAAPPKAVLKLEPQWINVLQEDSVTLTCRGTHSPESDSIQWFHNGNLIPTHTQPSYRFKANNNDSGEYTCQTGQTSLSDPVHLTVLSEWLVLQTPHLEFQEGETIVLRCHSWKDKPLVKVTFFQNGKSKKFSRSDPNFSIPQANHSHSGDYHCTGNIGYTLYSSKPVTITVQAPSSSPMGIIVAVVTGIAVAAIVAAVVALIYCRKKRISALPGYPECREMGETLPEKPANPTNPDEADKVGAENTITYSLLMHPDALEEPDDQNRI
Procedure: as §1, §2

CD32a H167 = target: T3, CD32a H167 (Homo sapiens, UniProt P12318); experiment: as above; type: binding; conditions: three replicate values per compound
T3 sequence (P12318 36-218 limits assumed): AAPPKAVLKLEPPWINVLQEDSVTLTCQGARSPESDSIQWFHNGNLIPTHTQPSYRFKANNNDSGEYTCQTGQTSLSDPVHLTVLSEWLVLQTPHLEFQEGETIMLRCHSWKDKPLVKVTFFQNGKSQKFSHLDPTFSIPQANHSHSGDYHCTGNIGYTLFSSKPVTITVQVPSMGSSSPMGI
Procedure: as §1, §2

CD16a158F [3] = target: T4, CD16a158F (Homo sapiens, UniProt P08637); experiment: as above; type: binding; conditions: three replicate values per compound
Procedure: as §1, §2

CD32a-R167 = experiment: as above; type: binding; conditions: three replicate values per compound
Procedure: as §1, §2

CD16a158V [4] = target: T1, CD16a158V; experiment: Biotinylated Ligand ELISA Assay; type: binding; conditions: Biotinylated CD16a protein at 10 nM
Procedure: as §1

CD16a158F [5] = target: T4, CD16a158F; experiment: Biotinylated Ligand ELISA Assay; type: binding; design: purchased Acro Biosystems CDA-H82E8; conditions: Biotinylated CD16a protein at 10 nM
Procedure: as §1

primary monocytes = experiment: ADCP assay using fresh primary monocytes; type: cell-based, human; conditions: beads loaded with test compound at 50 uM; 37C for 18 hrs
Procedure: Biotinylated fluorescent beads (Invitrogen, cat #P35372) were thoroughly mixed by vortexing for 1 min. Ten microliters of supplied bead suspension per treatment type were dispensed in Eppendorf tubes, and washed with 1 ml PBS […], then re-suspended in 500 uL of 1% BSA in PBS. Test compounds were added to bead suspensions to a final concentration of 50 uM, and biotinylated human IgG whole molecule (Rockland 009-0602) final concentration of 20 ug/mL.
Tubes were incubated at room temperature for 1 hr on a rocking platform.
Following incubation, beads were pelleted in a microcentrifuge at 12,000 g for 5 minutes at room temperature. Supernatants were carefully aspirated and beads were washed 5 times by resuspending in 1 ml of PBS 1% BSA, and centrifuging as described above. Finally, beads were resuspended in 500 ul of PBS 1% BSA and used in ADCP assay.
PBMC, freshly isolated from whole blood (Bioreclamation IVT0) using Ficoll-Paque density centrifugation were resuspended in serum-free, supplemented RPMI at 2×10^6 cells/mL.
Ten milliliters of the resulting cell suspension was seeded into 75-cm^2 tissue culture flask (Denville Scientific TC9341) and incubated 2-3 hr at 37° C. 5% CO2 to allow cell adhesion. Following incubation, media was decanted and surface of the flask was carefully washed twice, each time with 10 ml serum-free, supplemented RPMI to remove any residual non-adherent cells. To remove adherent cells, 10 mL of ice-cold 2.5 mM EDTA/PBS solution was added for 10 min on ice. Cells were transferred to a 15-ml conical tube and centrifuge 10 min at 300×g, room temperature, to remove the EDTA/PBS solution. Monocytes were then resuspended in RPMI 10% FCS at 5×10^5 cells/mL to be used in ADCP assay. Monocyte purity was assessed by staining cells with antibodies to human CD3 FITC (Biolegend 300306), CD19 PeCy7 (Biolegend 302216), CD14 BV421 (BD Biosciences, 565283), and CD16 (Biolegend 302046).
Monocytes or THP-1 cells (TIB-202 ATCC) were seeded into 96 well round bottom 96 well plates at the density of 10^5 cells per well in 200 ul, and 10 uL of fluorescent bead suspension prepared as described above was added to each well. Well contents were mixed by pipetting up and down using a multichannel pipet, and plates were incubated at 37C for 18 hrs. After incubation, well contents were transferred into flat bottom black 96 well plates (Costar #3358) and centrifuged for 2 minutes at 300 g to allow for better visualization of the cells. Images were taken using Zoe fluorescent cell imager (Biorad).

T1 sequence (P08637 17-208 F176V): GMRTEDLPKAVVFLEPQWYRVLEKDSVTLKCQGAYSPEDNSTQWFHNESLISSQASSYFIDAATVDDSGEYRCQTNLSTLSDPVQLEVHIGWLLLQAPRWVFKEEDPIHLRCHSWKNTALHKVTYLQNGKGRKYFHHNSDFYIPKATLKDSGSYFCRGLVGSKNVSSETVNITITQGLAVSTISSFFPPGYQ
Chain of CD64 (P12314 16-374): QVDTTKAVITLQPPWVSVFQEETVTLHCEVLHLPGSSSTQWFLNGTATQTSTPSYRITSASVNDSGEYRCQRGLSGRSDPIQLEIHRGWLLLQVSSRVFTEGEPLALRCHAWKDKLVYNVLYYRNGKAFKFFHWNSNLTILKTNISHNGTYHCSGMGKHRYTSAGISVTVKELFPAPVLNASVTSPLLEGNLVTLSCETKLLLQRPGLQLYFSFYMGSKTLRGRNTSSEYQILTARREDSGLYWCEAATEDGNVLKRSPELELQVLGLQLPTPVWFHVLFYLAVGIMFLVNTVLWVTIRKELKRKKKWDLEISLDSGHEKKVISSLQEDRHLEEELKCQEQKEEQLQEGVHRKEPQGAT
Chain of CD3ed (P07766 23-126 limits assumed): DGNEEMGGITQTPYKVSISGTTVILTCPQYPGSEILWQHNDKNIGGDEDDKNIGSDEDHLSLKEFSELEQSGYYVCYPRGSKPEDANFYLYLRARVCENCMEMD
Chain of CD3ed (P04234 22-105 limits assumed): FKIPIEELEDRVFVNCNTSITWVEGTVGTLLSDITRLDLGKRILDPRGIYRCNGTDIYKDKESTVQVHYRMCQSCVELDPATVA
T4 sequence (P08637 17-208 limits assumed): as the sequence (P08637 17-208 F176V) above, with V160F counted along it

Compound	Biotin ELISA Results No Protein [1]	Biotin ELISA Results CD16a-158V (CD16a158V [2])	Biotin ELISA Results CD3ed (CD3ed)	Biotin ELISA Results CD64 (CD64)	Biotin ELISA Results CD32b (CD32b)	Biotin ELISA Results CD32a-H167 (CD32a H167)	Biotin ELISA Results CD16a-158F (CD16a158F [3])	Biotin ELISA Results CD32a-R167 (CD32a-R167)	Biotinylated Ligand ELISA-CD16a158V Binding (RLU) (CD16a158V [4])	Biotinylated Ligand ELISA-CD16a158F Binding (RLU) (CD16a158F [5])	ACDP (primary monocytes)-normalized phagocytosis score (primary monocytes)
O=C(CCCC[C@@H]1SC[C@@H]2NC(=O)N[C@@H]21)NCCOCCOCCOCCOCCOCCOCCOCCOCCn1cc(-c2ccc(OCC(=O)N3CCC(N4CC(=O)N(c5ccccc5)C4=O)CC3)cc2)nn1 [Compound I-19, 5-[(3aS,4S,6aR)-2-oxo-hexahydro-1H-thieno[3,4-d]imidazol-4-yl]-N-{26-[4-(4-{2-[4-(2,4-dioxo-3-phenylimidazolidin-1-yl)piperidin-1-yl]-2-oxoethoxy}phenyl)-1H-1,2,3-triazol-1-yl]-3,6,9,12,15,18,21,24-octaoxahexacosan-1-yl}pentanamide]	1266 and 122 and 3990	−544 and −988 and −964	1852 and 1310 and 797	40706 and 42386 and 41814	2072 and 737 and 1622	276 and 696 and −362	−1097 and −1078 and −689	2048 and −50 and 349	D (a relative luminescence value (RLU) of 1-1,000)	D (a relative luminescence value (RLU) of 1-1,000)	–
O=C(CCCC[C@@H]1SC[C@@H]2NC(=O)N[C@@H]21)NCCOCCOCCOCCOCCOCCOCCOCCOCCNC(=O)c1cnc(N2CCC3(CC2)NC(=O)N(c2ccccc2)C3=O)s1 [Compound I-13, 5-[(3aS,4S,6aR)-2-oxo-hexahydro-1H-thieno[3,4-d]imidazol-4-yl]-N-{26-[(2-{2,4-dioxo-3-phenyl-1,3,8-triazaspiro[4.5]decan-8-yl}-1,3-thiazol-5-yl)formamido]-3,6,9,12,15,18,21,24-octaoxahexacosan-1-yl}pentanamide]	6804 and 19233 and 14386	4673 and 4920 and 4565	4252 and 15476 and 72836*	45845 and 36876 and 49943	7721 and 7105 and 9481	15516 and 14898 and 8681	10817 and 15276 and 9605	8032 and 6483 and 10638	–	–	–
O=C(CCCC[C@@H]1SC[C@@H]2NC(=O)N[C@@H]21)NCCOCCOCCOCCOCCOCCOCCOCCOCCn1cc(-c2cccc(NC(=O)N3CCC4(CC3)NC(=O)N(Cc3ccccc3)C4=O)c2)nn1 [Compound I-16, N-{3-[1-(26-{5-[(3aS,4S,6aR)-2-oxo-hexahydro-1H-thieno[3,4-d]imidazol-4-yl]pentanamido}-3,6,9,12,15,18,21,24-octaoxahexacosan-1-yl)-1H-1,2,3-triazol-4-yl]phenyl}-3-benzyl-2,4-dioxo-1,3,8-triazaspiro[4.5]decane-8-carboxamide]	4636 and 2801 and 5055	2543 and 5076 and 2414	3087 and 4575 and 2480	40426 and 53812 and 48052	3985 and 5047 and 3438	3600 and 3315 and 3632	19818 and 20544 and 2349*	8460 and 31058 and 13897	D (a relative luminescence value (RLU) of 1-1,000)	D (a relative luminescence value (RLU) of 1-1,000)	B (a normalized phagocytosis score of 1.5-2.0)
O=C(CCCC[C@@H]1SC[C@@H]2NC(=O)N[C@@H]21)NCCOCCOCCOCCOCCOCCOCCOCCOCCn1cc(-c2ccc(NC(=O)N3CCC(N4CCN(Cc5ccccc5)C4=O)CC3)cc2)nn1 [Compound I-15, N-{4-[1-(26-{5-[(3aS,4S,6aR)-2-oxo-hexahydro-1H-thieno[3,4-d]imidazol-4-yl]pentanamido}-3,6,9,12,15,18,21,24-octaoxahexacosan-1-yl)-1H-1,2,3-triazol-4-yl]phenyl}-4-(3-benzyl-2-oxoimidazolidin-1-yl)piperidine-1-carboxamide]	3931 and 5958 and 23315*	3136 and 3515 and 1518	7926 and 1921 and 46693*	43288 and 127129* and 49818	10786 and 29882* and 8282	5263 and 6063 and 4354	34842 and 7323* and 23569	11818 and 37679* and 11737	B (a relative luminescence value (RLU) of 10,000-100,000)	B (a relative luminescence value (RLU) of 10,000-100,000)	–
